This is an account of results in ChEMBL document CHEMBL1152101, “Boric acid effect ont he hydrolysis of 4-nitrophenyl 2,3-dihydroxybenzoate: mimic of borate inhibition of serine proteases” (Bioorg Med Chem Lett, 1993).

The structures appear in SMILES notation.

Data set [1] can be described thus: Tested for hydrolysis in presence of boric acid, dissociation constant was evaluated at the pH 8.5(Apparent inhibition constant). Type of data set: ADME.
Data set [2] in a line: Tested for hydrolysis in presence of boric acid, rate constant was evaluated at the pH 8.5. The note with it: buffer. Type of data set: ADME.
A short description of data set [3]: Hydrolysis rate constant was determined. Type of data set: ADME.
Data set [4] in a line: pKa value was determined. In kind it is physicochemical.
Data set [5] has as its target T1, Chymotrypsinogen A (Bos taurus, UniProt P00766). Put plainly: Tested for inhibition of hydrolysis in presence of alpha-chymotrypsin and phenylboronic acid(Apparent inhibition constant).
A short description of data set [6]: Tested for hydrolysis in presence of phenylboronic acid, dissociation constant was evaluated at the pH 9.5(Apparent inhibition constant). Type of data set: ADME.
The nature of data set [7]: Tested for hydrolysis in presence of phenylboronic acid, rate constant was evaluated at the pH 9.5. In kind it is ADME. The note with it: buffer.
Data set [8] can be described thus: Tested for hydrolysis in presence of boric acid, dissociation constant was evaluated at the pH 9.5(Apparent inhibition constant). In kind it is ADME.
The target of data set [9] is T1, Chymotrypsinogen A. Put plainly: Tested for inhibition of hydrolysis in presence of alpha-chymotrypsin and […](Apparent inhibition constant).
Data set [10] is described as follows: Tested for hydrolysis in presence of boric acid, rate constant was evaluated at the pH 9.5. In kind it is ADME. Particulars: buffer.
The nature of data set [11]: Tested for hydrolysis in presence of boric acid by UV spectrophotometry, dissociation constant was evaluated at the pH < 8. In kind it is ADME.

As to `O=C(Oc1ccc([N+](=O)[O-])cc1)c1cccc(O)c1O`, the Ki amounted to 380 µM in data set [1]; 200 µM at Chymotrypsinogen A [5]; 250 µM in data set [6]; 230 µM in [8]; 40000 µM on Chymotrypsinogen A [9]. Further, the KB in data set [2] is 0.000018 s⁻¹; in data set [7], 0.000017 s⁻¹; in data set [10], 0.000022 s⁻¹; in data set [11] it was 0.00005 s⁻¹. In data set [3], this molecule came in with a K1 of 0.000033 s⁻¹. In [3], this molecule had a K2 of 0.00026 s⁻¹. Further, the pKa in [4] is 8.8.
